Data: patent EP4660190A1, “PHARMACEUTICALLY ACCEPTABLE SALT OF COMPOUND AND PREPARATION METHOD THEREFOR” (Jiangsu Chia Tai Fenghai Pharmaceutical Co., Ltd., priority 2023, dated 2024)
Read-outs that look alike come from different tables or passages of the source. Marks after values point to notes of the source that are not given here.

How the values were obtained:
[1] = Pharmacokinetics of butylphthalide in rats (literature values); settings: rat; calculated based on the literature value of AUC0-inf (p.o. 60 mg/kg vs i.v. 10 mg/kg)
[2] = test system: Middle cerebral artery occlusion (MCAO) models of SD rats; assay: Rat MCAO model, single-dose administration, TTC staining infarct size; format: in vivo; settings: 24 h; for Infarct Size (%): Mean±SD
Description: 3: Pharmacodynamic study in Rat Middle Cerebral Artery Occlusion (MCAO) Model (Single-Dose Administration) Middle cerebral artery occlusion (MCAO) models of SD rats were constructed using the suture occlusion method to evaluate the protection effect of the compound on neurons of rats after cerebral ischemia-reperfusion. After anaesthesia induction with 3.0% isoflurane in SD rats (240-270g), the operation was performed, and the right-side neck area was dissected to reveal the right common carotid artery (CCA), external carotid artery (ECA) and internal carotid artery (ICA). The ECA was ligated. The ICA was temporarily occluded. Sutures were threaded at both the proximal end and the distal end of CCA. The distal end was securely ligated, and a loosely tied knot was placed at the proximal end. A small incision was made between the two ligatures on the CCA. A No. 4-0 suture was inserted through the incision of CCA and slowly and gently pushed into the ICA. The threading was halted temporarily when reaching the artery clamp of ICA. The pre-ligation suture was further tightened. The artery clamp blocking the blood flow in the ICA was removed, allowing the suture occlusion to be advanced into the ICA until it entered the intracranial region. […] The insertion was stopped at the moment, and the time was recorded. The artery clamp on the CCA was removed and the incision was closed after no active bleeding was observed. The ischemic rats were placed at room temperature to keep their body temperature at 37°C, and anesthesia induction could be carried out 120min later. The suture was slowly and gradually withdrawn when the rats were maintained under anesthesia, so that the proximal end of the suture returned to the ECA, thereby initiating reperfusion of the middle cerebral artery. Animals were administered for a single dose immediately after reperfusion (within 10min). 3 groups were established, namely a model control group, a Compound (I) i.v. group (30mg/kg), and a Compound (I) p.o. group (60mg/kg). Animals were euthanized 24 h after ischemia reperfusion, and the brains were rapidly taken, frozen, and dissected for TTC staining. The normal tissues were rose-red after staining, and the infarcted tissues were white. The infarct size (%) percentage, calculated as the weight of infarcted tissues to the weight of the whole brain, is used to evaluate the degree of cerebral ischemic injury in rats.

[3] = test system: MPTP-induced Parkinson's disease model mice; assay: MPTP-induced mouse Parkinson's disease model, striatal dopamine (DOPA) detection; format: in vivo, C57 mice; settings: striatum, four weeks, mean ± SD
[4] = test system: MPTP-induced Parkinson's disease model mice; assay: MPTP-induced mouse Parkinson's disease model, pole test; format: in vivo, C57 mice; settings: mean ± SD
[5] = test system: TDP-43-A315T transgenic mice of ALS model; assay: TDP-43-A315T ALS mice, rotarod test; format: in vivo; settings: Mean±SEM
[6] = test system: MPTP-induced Parkinson's disease model mice; assay: MPTP-induced mouse Parkinson's disease model, TH-positive cell counts in the substantia nigra pars compacta; format: in vivo, C57 mice; settings: four weeks, mean ± SD
SOD1 G93A ALS mice = assay: SOD1-G93A ALS mice, survival; format: in vivo; settings: 40 mg/kg dose group
[7] = test system: MPTP-induced Parkinson's disease model mice; assay: MPTP-induced mouse Parkinson's disease model, TH-positive fiber content in the striatum; format: in vivo, C57 mice; settings: four weeks, mean ± SD
[8] = Hygroscopicity test (Chinese Pharmacopoeia Section 9103); format: physicochemical; settings: 25°C, 80% relative humidity, 24 hours
[9] = test system: MPTP-induced Parkinson's disease model mice; assay: MPTP-induced mouse Parkinson's disease model, grip strength test; settings: Before Modeling, mean ± SD
[10] = for Total impurities: Table 4
[11] = test system: rat spinal cord injury model; assay: Rat spinal cord injury model, pathological changes
[12] = high dose 20 mg/kg daily, listed as Tromethamine salt from Example 10, 20 mg/kg
[13] = high dose 20 mg/kg daily, listed as tromethamine salt from Example 10, 20 mg/kg
[14] = low dose 5 mg/kg daily, listed as Tromethamine salt from Example 10, 5 mg/kg
[15] = low dose 5 mg/kg daily, listed as tromethamine salt from Example 10, 5 mg/kg

CCCCC1OC(=O)c2ccccc21 (stereo not shown) [Butylphthalide, butylphthalide, reference compound]
F [1]: 16.6* %

CCC/C(O)=C1/C(=O)Oc2ccccc21 [Compound (I)]
Cerebral infarction inhibition rate (%) ([2]; i.v. 30mg/kg single dose after reperfusion): 37.1% | Infarct Size (%) ([2]; i.v. 30mg/kg single dose after reperfusion, 30 mg/kg): 13.61±3.66 % | Infarct Size (%) ([2]; i.v. 30mg/kg single dose after reperfusion, listed as compound (I), 30 mg/kg): 13.61±3.66% | Cerebral infarction inhibition rate (%) ([2]; p.o. 60mg/kg single dose after reperfusion): 31.2% | Infarct Size (%) ([2]; p.o. 60mg/kg single dose after reperfusion, 60 mg/kg): 14.88±5.11 % | Infarct Size (%) ([2]; p.o. 60mg/kg single dose after reperfusion, listed as compound (I), 60 mg/kg): 14.88±5.11%

(Z)-3-(1-hydroxybutenyl)benzofuran-2-one tromethamine salt [Example 10]
DOPA [3, 12]: 2731.07 ± 868.18 ng/g | DOPA [3, 13]: 2731.07 ± 868.18 ng/g | DOPA [3, 14]: 837.82±372.19^& ng/g | DOPA [3, 15]: 837.82 ± 372.19 ng/g | Pole test results ([4]; high dose 20 mg/kg daily, four weeks, Study Endpoint, listed as Tromethamine salt from Example 10, 20 mg/kg): 8.83 ± 1.77 s | Pole test results ([4]; high dose 20 mg/kg daily, four weeks, Study Endpoint, listed as tromethamine salt from Example 10, 20 mg/kg): 8.83 ± 1.77 s | Pole test results ([4]; high dose 20 mg/kg group, Before Modeling): 9.51 ± 1.66 s | Pole test results ([4]; low dose 5 mg/kg daily, four weeks, Study Endpoint, listed as Tromethamine salt from Example 10, 5 mg/kg): 9.67 ± 1.48 s | Pole test results ([4]; low dose 5 mg/kg daily, four weeks, Study Endpoint, listed as tromethamine salt from Example 10, 5 mg/kg): 9.67 ± 1.48 s | Pole test results ([4]; low dose 5 mg/kg group, Before Modeling): 9.40 ± 1.51 s | Rotarod performance ([5]; female mice, 20mg/kg, Dosing Schedule (weeks) 2): 287.0 ± 8.449 s | Rotarod performance ([5]; female mice, 20mg/kg, Dosing Schedule (weeks) 4): 288.6 ± 7.796 s | Rotarod performance ([5]; female mice, 20mg/kg, Dosing Schedule (weeks) 6): 285.4 ± 6.626 s | Rotarod performance ([5]; female mice, 20mg/kg, Dosing Schedule (weeks) 8): 266.3 ± 14.55 s | Rotarod performance ([5]; female mice, 20mg/kg, Dosing Schedule (weeks) 10): 254.2 ± 12.62 s | Rotarod performance ([5]; female mice, 20mg/kg, Dosing Schedule (weeks) 12): 266.2 ± 14.94 s | Rotarod performance ([5]; female mice, 20mg/kg, Dosing Schedule (weeks) 14): 272.3 ± 10.62 s | Rotarod performance ([5]; female mice, 20mg/kg, Dosing Schedule (weeks) 16): 267.8 ± 16.51 s | Rotarod performance ([5]; female mice, 40mg/kg p.o., Dosing Schedule (weeks) 2): 273.6 ± 12.14 s | Rotarod performance ([5]; female mice, 40mg/kg p.o., Dosing Schedule (weeks) 4): 271.4 ± 10.22 s | Rotarod performance ([5]; female mice, 40mg/kg p.o., Dosing Schedule (weeks) 6): 269.5 ± 8.270 s | Rotarod performance ([5]; female mice, 40mg/kg p.o., Dosing Schedule (weeks) 8): 275.6 ± 9.651 s | Rotarod performance ([5]; female mice, 40mg/kg p.o., Dosing Schedule (weeks) 10): 260.6 ± 12.34 s | Rotarod performance ([5]; female mice, 40mg/kg p.o., Dosing Schedule (weeks) 12): 270.6 ± 9.446 s | Rotarod performance ([5]; female mice, 40mg/kg p.o., Dosing Schedule (weeks) 14): 256.3 ± 10.00 s | Rotarod performance ([5]; female mice, 40mg/kg p.o., Dosing Schedule (weeks) 16): 236.5 ± 15.50 s | Rotarod performance ([5]; male mice, 40mg/kg p.o., Dosing Schedule (weeks) 6): 272.9 ± 7.148 s | Rotarod performance ([5]; male mice, 40mg/kg p.o., Dosing Schedule (weeks) 8): 267.5 ± 9.357 s | Rotarod performance ([5]; male mice, 40mg/kg p.o., Dosing Schedule (weeks) 10): 275.8 ± 10.38 s | Rotarod performance ([5]; male mice, 40mg/kg p.o., Dosing Schedule (weeks) 11): 224.3 ± 26.08 s | Rotarod performance ([5]; male mice, 40mg/kg p.o., Dosing Schedule (weeks) 12): 182.1 ± 40.34 s | Rotarod performance ([5]; male mice, 40mg/kg p.o., Dosing Schedule (weeks) 13): 154.2 ± 30.27 s | Rotarod performance ([5]; male mice, 60mg/kg p.o., Dosing Schedule (weeks) 6): 295.6 ± 3.322 s | Rotarod performance ([5]; male mice, 60mg/kg p.o., Dosing Schedule (weeks) 8): 275.1 ± 11.91 s | Rotarod performance ([5]; male mice, 60mg/kg p.o., Dosing Schedule (weeks) 10): 267.3 ± 10.94 s | Rotarod performance ([5]; male mice, 60mg/kg p.o., Dosing Schedule (weeks) 11): 263.0 ± 12.54 s | Rotarod performance ([5]; male mice, 60mg/kg p.o., Dosing Schedule (weeks) 12): 266.3 ± 17.99 s | Rotarod performance ([5]; male mice, 60mg/kg p.o., Dosing Schedule (weeks) 13): 209.0 ± 31.68 s | TH-Positive Cell counts [6, 12]: 42.42±4.36^&# | TH-Positive Cell counts [6, 13]: 42.42±4.36 | TH-Positive Cell counts [6, 14]: 31.22±5.97^& | TH-Positive Cell counts [6, 15]: 31.22±5.97 | extension of survival (SOD1 G93A ALS mice): approximately 15 days | TH-Positive Fiber Content [7, 12]: 709627.56±100462.19^&# | TH-Positive Fiber Content [7, 13]: 709,627.56±100,462.19 | TH-Positive Fiber Content [7, 14]: 526554.39±169680.75^& | TH-Positive Fiber Content [7, 15]: 526,554.39±169,680.75 | hygroscopicity [8]: non-hygroscopic | weight gain percentage [8]: 0.0% | Grip Strength Test ([9]; high dose 20 mg/kg group): 278.44 ± 8.96 g | Grip Strength Test ([9]; low dose 5 mg/kg group): 276.97 ± 6.40 g | Total impurities ([10]; 0 h): 0.08 | Total impurities ([10]; High Humidity 75%, 10 d): 0.04 | Total impurities ([10]; High Humidity 92.5%, 10 d): 0.04 | Total impurities ([10]; High temperature 60°C, 10 d): 0.03 | Total impurities ([10]; Light (packaged), 10 d): 0.04 | Total impurities ([10]; Light (unwrapped), 10 d): 0.03 | chemical stability ([10]; high temperature (60°C), light (unwrapped, packaged), high humidity (92.5%, 75%)): good chemical stability | cases showing a reduction in lesions ([11]; 20 mg/kg dose group, spinal cord histopathology): 4 out of 6 | pathological changes versus the model control group ([11]; low-dose group (5 mg/kg)): No significant differences
